In a compilation of properties of binary mixtures (doi:10.1590/0104-6632.20180352s20160280):

Assay: xn = mol fraction of the nth substance listed
Conditions: 100 kPa

O=C[O-].OCC[NH2+]CCO + O
viscosity [mPa·s]
Conditions | x1 = 0.0292 | x1 = 0.075 | x1 = 0.1516 | x1 = 0.2184 | x1 = 0.3185 | x1 = 0.5155 | x1 = 0.5932 | x1 = 0.7378 | x1 = 0.7987 | x1 = 1
293.15 K | 1.69 | – | 8.2 | 16.1 | – | 112 | 133 | 243 | 329 | –
303.15 K | – | 2.5 | 5.9 | 11 | 23.2 | 65 | 76 | 132 | – | 242
313.15 K | 1.1 | – | 4.48 | 8 | 15.8 | 40.7 | 46.6 | 77 | 99 | 135
323.15 K | 0.93 | 1.64 | 3.51 | 6 | 11.3 | 27.1 | 30.6 | 49 | 61 | 82
333.15 K | 0.8 | 1.38 | 2.82 | 4.68 | – | 19 | 21.2 | 32.8 | – | 53
343.15 K | 0.7 | 1.18 | 2.33 | 3.75 | 6.5 | 13.9 | – | 23 | 27.8 | –

O + O=C[O-].OCC[NH2+]CCO
x2 = 0
Conditions | viscosity [mPa·s]
293.15 K | 1
303.15 K | 0.82
333.15 K | 0.5
343.15 K | 0.451
